Test results reported in ChEMBL document CHEMBL1201862, “PubChem BioAssay data set” (2004).
Activity calls are given as the source filed them.

Experiments:
[1] = THP-1 cell cytotoxicity, cytotoxicity control, set 4 (AID 504911); assay type: functional; settings: Mycobacterium tuberculosis
[2] = Vero cell cytotoxicity, dose response, cytotoxicity control for M. tuberculosis growth inhibitor project, Vero cells, purified and synthesized compounds, set 4 (AID 504854); assay type: functional; settings: Mycobacterium tuberculosis
[3] = THP-1 cell cytotoxicity, cytotoxicity control, set 5 (AID 588443); assay type: functional
[4] = Vero cell cytotoxicity, dose response, cytotoxicity control for M. tuberculosis inhibitor project, purified and synthesized compounds, set 6 (AID 588445); assay type: functional; settings: Mycobacterium tuberculosis
[5] = biological target: Protein kinase C theta type (Homo sapiens, UniProt Q04759); assay: Navigating the Kinome. Panel member name: PRKCQ; assay type: functional
[6] = biological target: Dual specificity mitogen-activated protein kinase kinase 1 (Homo sapiens, UniProt Q02750); assay: Navigating the Kinome. Panel member name: MAP2K1; assay type: functional
[7] = biological target: Proto-oncogene tyrosine-protein kinase receptor Ret (Homo sapiens, UniProt P07949); assay type: functional;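 note: measured within a kinome-wide profiling panel, RET as the panel member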
[8] = biological target: Tyrosine-protein kinase receptor TYRO3 (Homo sapiens, UniProt Q06418); assay type: functional;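 note: TYRO3 value obtained as one member of a kinome-wide profiling panel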
Aurora kinase A = Aurora kinase A (Homo sapiens, UniProt O14965); assay type: functional;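 note: value from the Navigating the Kinome kinase panel profiling, panel entry STK6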
[9] = biological target: Fibroblast growth factor receptor 1 (Homo sapiens, UniProt P11362); assay type: functional
[10] = biological target: Casein kinase I isoform alpha (Homo sapiens, UniProt P48729); assay type: functional
[11] = biological target: Hepatocyte growth factor receptor (Homo sapiens, UniProt P08581); assay type: functional;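 note: kinase panel profiling across the kinome, with MET as the panel member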
Activated CDC42 kinase 1 = Activated CDC42 kinase 1 (Homo sapiens, UniProt Q07912); assay: Navigating the Kinome. Panel member name: ACK1; assay type: functional
[12] = biological target: Platelet-derived growth factor receptor beta (Homo sapiens, UniProt P09619); assay type: functional;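 note: value comes from a kinome panel, with PDGFRB tested as one panel member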
[13] = biological target: Serine/threonine-protein kinase Chk1 (Homo sapiens, UniProt O14757); assay type: functional;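 note: measured as one member of a kinome-wide kinase profiling panel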
[14] = biological target: Tyrosine-protein kinase ABL1 (Homo sapiens, UniProt P00519); assay type: functional
[15] = biological target: Vascular endothelial growth factor receptor 2 (Homo sapiens, UniProt P35968); assay type: functional
[16] = biological target: G protein-coupled receptor kinase 5 (Homo sapiens, UniProt P34947); assay: Navigating the Kinome. Panel member name: GPRK5; assay type: functional
[17] = biological target: Cyclin-dependent kinase 5 (Homo sapiens, UniProt Q00535); assay type: functional;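 note: CDK5 measured as one member of a kinase profiling panel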
[18] = biological target: Dual specificity tyrosine-phosphorylation-regulated kinase 1B (Homo sapiens, UniProt Q9Y463); assay: Navigating the Kinome. Panel member name: DYRK1B; assay type: functional
Focal adhesion kinase 1 = Focal adhesion kinase 1 (Homo sapiens, UniProt Q05397); assay type: functional;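 note: measured as one member of a kinome panel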
[19] = biological target: Platelet-derived growth factor receptor alpha (Homo sapiens, UniProt P16234); assay: Navigating the Kinome. Panel member name: PDGFRA; assay type: functional
Aurora kinase B = Aurora kinase B (Homo sapiens, UniProt Q96GD4); assay type: functional
[20] = biological target: Serine/threonine-protein kinase Nek2 (Homo sapiens, UniProt P51955); assay type: functional
[21] = biological target: Cyclin-dependent kinase 8 (Homo sapiens, UniProt P49336); assay: Navigating the Kinome. Panel member name: CDK8; assay type: functional
[22] = biological target: Vascular endothelial growth factor receptor 1 (Homo sapiens, UniProt P17948); assay type: functional;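 note: measured within a kinome-wide profiling panel, FLT1 as the panel member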
[23] = biological target: cAMP-dependent protein kinase catalytic subunit alpha (Homo sapiens, UniProt P17612); assay type: functional
[24] = biological target: Dual specificity protein kinase CLK4 (Homo sapiens, UniProt Q9HAZ1); assay type: functional
[25] = biological target: Mitogen-activated protein kinase kinase kinase kinase 4 (Homo sapiens, UniProt O95819); assay type: functional
[26] = biological target: Macrophage colony-stimulating factor 1 receptor (Homo sapiens, UniProt P07333); assay type: functional;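 note: value comes from the Navigating the Kinome screening panel, CSF1R member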
[27] = biological target: Dual specificity tyrosine-phosphorylation-regulated kinase 1A (Homo sapiens, UniProt Q13627); assay type: functional;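 note: measured against DYRK1A as one member of a broad kinome profiling panel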
[28] = biological target: Inhibitor of nuclear factor kappa-B kinase subunit epsilon (Homo sapiens, UniProt Q14164); assay: Navigating the Kinome. Panel member name: IKBKE; assay type: functional
[29] = biological target: Calcium/calmodulin-dependent protein kinase type II subunit alpha (Homo sapiens, UniProt Q9UQM7); assay: Navigating the Kinome. Panel member name: CAMK2A; assay type: functional
[30] = biological target: Leukocyte tyrosine kinase receptor (Homo sapiens, UniProt P29376); assay: Navigating the Kinome. Panel member name: LTK; assay type: functional
Beta-lactamase [31] = biological target: Beta-lactamase (Pseudomonas aeruginosa, UniProt Q79MP6);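 note: biochemical dose-response test of metallo-beta-lactamase enzyme inhibition, read out by epi-absorbance; purified recombinant IMP-1 metallo-beta-lactamase with nitrocefin as substrate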
Beta-lactamase [32] = biological target: Beta-lactamase (Salmonella choleraesuis (strain SC-B67), UniProt Q5J463)
[33] = biological target: T1, G-protein coupled receptor 55 (Homo sapiens, UniProt Q9Y2T6); assay: GPR55 agonists via beta-arrestin recruitment, primary screen, imaging, U2OS cells, beta-arrestin-GFP redistribution (AID 1961); assay type: functional
[34] = biological target: T2, Botulinum neurotoxin type A (Clostridium botulinum (strain Hall / ATCC 3502 / NCTC 13319 / Type A), UniProt P0DPI1); assay: High-throughput multiplex microsphere dose response for inhibitors of toxin protease, specifically Botulinum neurotoxin light chain A protease, compounds from Cherry Pick 02.; assay type: functional; settings: read-out: EC50_MICROM
[35] = biological target: T3, Botulinum neurotoxin type F (Clostridium botulinum, UniProt P30996); assay: High-throughput multiplex microsphere dose response for inhibitors of toxin protease, specifically Botulinum neurotoxin light chain F protease, compounds from Cherry Pick 02.; assay type: functional; settings: read-out: EC50_MICROM
[36] = biological target: T2, Botulinum neurotoxin type A; assay: High-throughput multiplex microsphere dose response for inhibitors of toxin protease, specifically Botulinum neurotoxin light chain A protease, compounds from Cherry Pick 01.; assay type: functional; settings: read-out: EC50_MICROM
[37] = biological target: T3, Botulinum neurotoxin type F; assay: High-throughput multiplex microsphere dose response for inhibitors of toxin protease, specifically Botulinum neurotoxin light chain F protease, compounds from Cherry Pick 01.; assay type: functional; settings: read-out: EC50_MICROM
[38] = biological target: T2, Botulinum neurotoxin type A; assay: High-throughput multiplex microsphere dose response for inhibitors of toxin protease, specifically Botulinum neurotoxin light chain A protease, compounds from Powder Set 01.; assay type: functional, Clostridium botulinum A str. ATCC 3502; settings: read-out: EC50_MICROM
[39] = biological target: T2, Botulinum neurotoxin type A; assay: Confirmatory FRET assay using full length substrates for Botulinum neurotoxin light chain A protease, with Powder Set01.; assay type: functional
[40] = biological target: T1, G-protein coupled receptor 55; assay: GPR55 antagonists blocking LPI-driven arrestin recruitment, primary screen, imaging, U2OS, beta-arrestin-GFP, LPI agonist (AID 2013); assay type: functional;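 note: antagonist potency measured as reduced agonist-driven arrestin aggregation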
Insulin-degrading enzyme [41] = biological target: T4, Insulin-degrading enzyme (Homo sapiens, UniProt P14735); assay: activators of recombinant IDE enzyme, dose response, counter-screen for IDE activator project, biochemical, fluorescence polarization (AID 588681)
T4 sequence (P14735 whole entry): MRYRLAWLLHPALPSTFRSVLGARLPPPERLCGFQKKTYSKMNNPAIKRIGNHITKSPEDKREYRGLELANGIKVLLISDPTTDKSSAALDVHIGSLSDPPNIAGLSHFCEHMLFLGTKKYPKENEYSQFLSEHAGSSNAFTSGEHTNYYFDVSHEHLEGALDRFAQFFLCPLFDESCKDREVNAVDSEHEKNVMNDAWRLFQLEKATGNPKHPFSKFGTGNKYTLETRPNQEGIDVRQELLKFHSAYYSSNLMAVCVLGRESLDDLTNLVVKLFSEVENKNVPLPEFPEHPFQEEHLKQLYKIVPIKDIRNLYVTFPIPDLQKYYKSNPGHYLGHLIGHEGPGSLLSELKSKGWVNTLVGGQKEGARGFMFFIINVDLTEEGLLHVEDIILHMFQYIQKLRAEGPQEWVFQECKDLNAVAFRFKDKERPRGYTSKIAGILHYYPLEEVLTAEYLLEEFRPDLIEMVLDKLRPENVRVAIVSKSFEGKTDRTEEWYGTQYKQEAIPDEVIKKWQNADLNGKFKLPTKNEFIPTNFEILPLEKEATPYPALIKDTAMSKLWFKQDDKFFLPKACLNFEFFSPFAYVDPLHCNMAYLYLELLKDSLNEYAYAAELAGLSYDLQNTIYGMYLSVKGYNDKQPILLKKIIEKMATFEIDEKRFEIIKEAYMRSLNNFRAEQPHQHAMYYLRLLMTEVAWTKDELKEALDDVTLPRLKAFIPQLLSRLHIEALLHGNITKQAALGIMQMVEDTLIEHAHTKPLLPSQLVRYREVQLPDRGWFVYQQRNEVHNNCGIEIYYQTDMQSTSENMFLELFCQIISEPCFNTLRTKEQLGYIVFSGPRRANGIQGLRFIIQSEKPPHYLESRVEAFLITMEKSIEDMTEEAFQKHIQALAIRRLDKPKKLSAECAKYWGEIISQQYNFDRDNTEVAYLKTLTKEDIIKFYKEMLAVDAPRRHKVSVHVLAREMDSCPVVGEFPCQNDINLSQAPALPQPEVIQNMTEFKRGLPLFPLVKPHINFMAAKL

Insulin-degrading enzyme [42] = biological target: T4, Insulin-degrading enzyme; assay: activators of endogenous IDE in HEK cells, dose response, cell-based, fluorescence polarization (AID 588439); assay type: functional
HEK293 [43] = assay: HEK cell cytotoxicity by LDH release, dose response, cytotoxicity control for IDE activator project, fluorescence, HEK cells (AID 588440); assay type: functional, cell-based; settings: Homo sapiens;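 note: cytotoxicity by LDH release measuring loss of membrane integrity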
HEK293 [44] = assay: optical interference in Abeta FP readout, dose response, artefact control for IDE activator project, biochemical, fluorescence polarization (AID 588442); assay type: functional, cell-based; settings: Homo sapiens
[45] = biological target: Rho-associated protein kinase 1 (Homo sapiens, UniProt Q13464); assay type: functional;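 note: measured within a broad kinome-wide panel profiling many kinases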
[46] = biological target: Cyclin-dependent kinase 9 (Homo sapiens, UniProt P50750); assay type: functional;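 note: value from the CDK9 entry of a kinome-spanning kinase panel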
[47] = biological target: DNA dC->dU-editing enzyme APOBEC-3G (Homo sapiens, UniProt Q9HC16); assay: APOBEC3G deaminase inhibitors, SAR follow-up, biochemical, fluorescence, single-stranded DNA substrate (AID 602136); assay type: functional; settings: read-out: IC50_Mean
[48] = biological target: DNA dC->dU-editing enzyme APOBEC-3A (Homo sapiens, UniProt P31941); assay: SAR analysis of small molecule inhibitors of APOBEC3A DNA Deaminase via a fluorescence-based single-stranded DNA deaminase assay.; assay type: functional; settings: read-out: IC50_Mean
[49] = biological target: Homeodomain-interacting protein kinase 2 (Homo sapiens, UniProt Q9H2X6); assay type: functional;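 note: measured within a kinome-wide kinase profiling panel, HIPK2 being one panel member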
[50] = biological target: Interleukin-1 receptor-associated kinase 4 (Homo sapiens, UniProt Q9NWZ3); assay type: functional
[51] = biological target: Glycogen synthase kinase-3 beta (Homo sapiens, UniProt P49841); assay type: functional;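 note: value comes from a broad kinome profiling panel, with GSK3B as the panel member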

T2 sequence (P0DPI1 2-448 limits assumed): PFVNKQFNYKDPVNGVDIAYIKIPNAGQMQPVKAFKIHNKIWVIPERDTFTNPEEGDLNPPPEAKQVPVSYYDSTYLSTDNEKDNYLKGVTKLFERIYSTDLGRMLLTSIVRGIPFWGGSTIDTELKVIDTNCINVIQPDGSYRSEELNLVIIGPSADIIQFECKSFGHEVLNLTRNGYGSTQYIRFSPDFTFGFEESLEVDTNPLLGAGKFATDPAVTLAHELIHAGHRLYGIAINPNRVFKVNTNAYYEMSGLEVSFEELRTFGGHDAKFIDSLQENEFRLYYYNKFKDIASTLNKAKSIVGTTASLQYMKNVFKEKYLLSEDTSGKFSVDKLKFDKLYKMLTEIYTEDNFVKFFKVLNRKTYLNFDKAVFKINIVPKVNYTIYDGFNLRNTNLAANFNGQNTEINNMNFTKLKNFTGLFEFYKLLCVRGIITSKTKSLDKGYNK
Platelet-derived growth factor receptor alpha, sequence (P16234 whole entry): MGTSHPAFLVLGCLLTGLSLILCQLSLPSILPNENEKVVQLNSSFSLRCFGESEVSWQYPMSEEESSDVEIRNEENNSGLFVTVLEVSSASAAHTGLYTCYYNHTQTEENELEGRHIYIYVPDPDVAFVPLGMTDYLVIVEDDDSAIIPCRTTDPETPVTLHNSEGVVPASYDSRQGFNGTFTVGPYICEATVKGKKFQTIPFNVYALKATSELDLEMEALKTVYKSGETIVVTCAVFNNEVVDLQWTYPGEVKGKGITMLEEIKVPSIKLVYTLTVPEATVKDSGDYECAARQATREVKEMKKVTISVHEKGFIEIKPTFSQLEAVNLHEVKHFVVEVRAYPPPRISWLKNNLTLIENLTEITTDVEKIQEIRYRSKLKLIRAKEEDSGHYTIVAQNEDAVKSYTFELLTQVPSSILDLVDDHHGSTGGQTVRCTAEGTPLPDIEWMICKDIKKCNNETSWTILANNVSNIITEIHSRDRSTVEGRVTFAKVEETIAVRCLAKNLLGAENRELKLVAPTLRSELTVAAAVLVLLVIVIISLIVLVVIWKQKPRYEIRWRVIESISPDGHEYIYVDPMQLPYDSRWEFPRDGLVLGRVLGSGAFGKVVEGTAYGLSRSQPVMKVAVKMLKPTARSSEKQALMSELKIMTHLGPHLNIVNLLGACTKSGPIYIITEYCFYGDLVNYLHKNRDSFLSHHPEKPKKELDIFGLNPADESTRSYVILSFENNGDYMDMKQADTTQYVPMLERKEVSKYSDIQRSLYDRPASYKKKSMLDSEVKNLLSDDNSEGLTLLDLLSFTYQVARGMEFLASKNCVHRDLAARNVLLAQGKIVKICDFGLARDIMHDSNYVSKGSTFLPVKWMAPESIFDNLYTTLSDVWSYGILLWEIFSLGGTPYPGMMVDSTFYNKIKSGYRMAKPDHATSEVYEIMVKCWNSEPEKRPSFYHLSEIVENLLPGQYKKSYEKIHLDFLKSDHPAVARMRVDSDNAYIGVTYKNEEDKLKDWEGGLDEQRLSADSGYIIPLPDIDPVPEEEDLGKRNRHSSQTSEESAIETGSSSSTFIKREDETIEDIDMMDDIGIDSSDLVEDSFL
Mitogen-activated protein kinase kinase kinase kinase 4, sequence (O95819 whole entry): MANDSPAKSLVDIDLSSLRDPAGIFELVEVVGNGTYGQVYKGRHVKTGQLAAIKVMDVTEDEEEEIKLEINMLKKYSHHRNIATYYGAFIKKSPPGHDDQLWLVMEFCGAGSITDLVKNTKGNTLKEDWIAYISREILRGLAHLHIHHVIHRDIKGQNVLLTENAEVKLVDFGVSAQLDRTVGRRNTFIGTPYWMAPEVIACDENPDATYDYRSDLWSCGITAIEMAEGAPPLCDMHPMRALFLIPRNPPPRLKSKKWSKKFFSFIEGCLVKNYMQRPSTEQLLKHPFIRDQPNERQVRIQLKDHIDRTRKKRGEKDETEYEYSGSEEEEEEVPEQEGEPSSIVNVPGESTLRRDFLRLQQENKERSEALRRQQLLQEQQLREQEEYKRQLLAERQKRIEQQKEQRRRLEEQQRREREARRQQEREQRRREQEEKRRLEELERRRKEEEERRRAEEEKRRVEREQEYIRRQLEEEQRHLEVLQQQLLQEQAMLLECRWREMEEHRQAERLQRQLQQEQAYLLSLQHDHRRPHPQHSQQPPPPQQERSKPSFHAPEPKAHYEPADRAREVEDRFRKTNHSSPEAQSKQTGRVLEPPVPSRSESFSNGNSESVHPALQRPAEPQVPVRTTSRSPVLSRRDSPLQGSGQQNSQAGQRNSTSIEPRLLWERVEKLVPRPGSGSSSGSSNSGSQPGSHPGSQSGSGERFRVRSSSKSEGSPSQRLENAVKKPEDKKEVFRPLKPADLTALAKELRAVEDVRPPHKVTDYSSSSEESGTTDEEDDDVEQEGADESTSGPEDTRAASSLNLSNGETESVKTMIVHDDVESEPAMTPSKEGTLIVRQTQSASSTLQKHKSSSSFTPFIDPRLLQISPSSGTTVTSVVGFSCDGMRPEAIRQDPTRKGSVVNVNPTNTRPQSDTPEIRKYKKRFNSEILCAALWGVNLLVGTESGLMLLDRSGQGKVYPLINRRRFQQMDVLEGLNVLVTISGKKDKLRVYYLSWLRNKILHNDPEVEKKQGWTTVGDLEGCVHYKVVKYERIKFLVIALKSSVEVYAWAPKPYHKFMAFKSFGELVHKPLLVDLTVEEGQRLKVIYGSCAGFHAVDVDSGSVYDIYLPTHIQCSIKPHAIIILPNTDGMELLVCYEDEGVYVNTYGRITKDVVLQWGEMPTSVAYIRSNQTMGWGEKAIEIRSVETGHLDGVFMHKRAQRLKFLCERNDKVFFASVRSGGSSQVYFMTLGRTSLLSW
Dual specificity protein kinase CLK4, sequence (Q9HAZ1 whole entry): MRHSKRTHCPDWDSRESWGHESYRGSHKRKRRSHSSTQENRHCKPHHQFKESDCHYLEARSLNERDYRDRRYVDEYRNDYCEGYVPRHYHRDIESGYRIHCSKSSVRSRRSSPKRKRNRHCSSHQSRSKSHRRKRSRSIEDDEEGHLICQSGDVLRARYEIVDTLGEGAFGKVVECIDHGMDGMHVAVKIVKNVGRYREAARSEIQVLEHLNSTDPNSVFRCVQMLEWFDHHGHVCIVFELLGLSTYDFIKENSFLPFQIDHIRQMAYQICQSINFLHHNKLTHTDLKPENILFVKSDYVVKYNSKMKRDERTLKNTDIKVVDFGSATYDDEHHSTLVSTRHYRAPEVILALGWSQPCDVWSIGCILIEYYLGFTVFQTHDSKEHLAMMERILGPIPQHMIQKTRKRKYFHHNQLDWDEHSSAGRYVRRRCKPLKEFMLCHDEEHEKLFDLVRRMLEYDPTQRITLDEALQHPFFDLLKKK
Dual specificity tyrosine-phosphorylation-regulated kinase 1B, sequence (Q9Y463 whole entry): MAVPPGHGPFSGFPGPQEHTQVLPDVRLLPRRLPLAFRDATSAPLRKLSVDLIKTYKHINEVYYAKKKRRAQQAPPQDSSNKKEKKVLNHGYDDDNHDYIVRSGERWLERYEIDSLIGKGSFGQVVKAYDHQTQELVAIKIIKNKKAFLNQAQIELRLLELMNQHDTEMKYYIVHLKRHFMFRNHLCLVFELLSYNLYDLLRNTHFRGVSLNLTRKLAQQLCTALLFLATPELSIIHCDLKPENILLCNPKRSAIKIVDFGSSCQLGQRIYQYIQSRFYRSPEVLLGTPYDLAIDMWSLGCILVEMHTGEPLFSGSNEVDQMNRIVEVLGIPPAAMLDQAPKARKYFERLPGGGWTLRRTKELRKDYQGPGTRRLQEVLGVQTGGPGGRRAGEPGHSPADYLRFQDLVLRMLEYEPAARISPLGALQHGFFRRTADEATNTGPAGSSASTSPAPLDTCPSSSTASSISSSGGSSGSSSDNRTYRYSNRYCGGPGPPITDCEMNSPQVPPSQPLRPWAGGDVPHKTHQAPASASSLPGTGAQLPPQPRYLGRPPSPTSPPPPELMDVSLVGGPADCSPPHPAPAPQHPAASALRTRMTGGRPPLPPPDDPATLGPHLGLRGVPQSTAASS
Cyclin-dependent kinase 8, sequence (P49336 whole entry): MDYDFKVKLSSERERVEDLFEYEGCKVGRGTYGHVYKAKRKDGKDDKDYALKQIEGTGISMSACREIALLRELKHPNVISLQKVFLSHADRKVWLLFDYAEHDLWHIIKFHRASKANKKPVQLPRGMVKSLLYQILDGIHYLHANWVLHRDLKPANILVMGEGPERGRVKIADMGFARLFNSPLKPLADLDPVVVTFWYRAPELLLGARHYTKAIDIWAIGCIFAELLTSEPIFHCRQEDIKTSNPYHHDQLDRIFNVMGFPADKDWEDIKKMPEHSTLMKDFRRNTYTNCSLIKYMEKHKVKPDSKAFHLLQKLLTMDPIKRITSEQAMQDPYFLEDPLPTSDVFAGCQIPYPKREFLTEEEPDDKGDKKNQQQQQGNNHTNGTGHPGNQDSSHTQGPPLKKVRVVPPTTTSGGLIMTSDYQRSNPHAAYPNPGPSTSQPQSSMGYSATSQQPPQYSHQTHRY
T1 sequence (Q9Y2T6 whole entry): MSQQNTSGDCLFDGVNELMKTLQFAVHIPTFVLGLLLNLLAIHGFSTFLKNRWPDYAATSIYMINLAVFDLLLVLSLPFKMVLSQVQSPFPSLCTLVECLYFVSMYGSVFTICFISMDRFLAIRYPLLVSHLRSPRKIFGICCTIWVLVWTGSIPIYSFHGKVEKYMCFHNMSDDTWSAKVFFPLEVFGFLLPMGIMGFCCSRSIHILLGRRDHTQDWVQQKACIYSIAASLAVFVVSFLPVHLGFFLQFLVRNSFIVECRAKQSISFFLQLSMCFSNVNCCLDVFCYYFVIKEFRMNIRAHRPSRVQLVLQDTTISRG
Beta-lactamase (Pseudomonas aeruginosa, UniProt Q79MP6), sequence (Q79MP6 whole entry): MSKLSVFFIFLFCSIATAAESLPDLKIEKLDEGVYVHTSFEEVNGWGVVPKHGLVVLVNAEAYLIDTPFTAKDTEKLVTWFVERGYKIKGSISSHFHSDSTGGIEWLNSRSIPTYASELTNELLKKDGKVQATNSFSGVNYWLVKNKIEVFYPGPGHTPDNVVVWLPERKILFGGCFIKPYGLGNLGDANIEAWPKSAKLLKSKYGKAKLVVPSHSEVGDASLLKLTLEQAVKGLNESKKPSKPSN

O=C(CSc1nc2c(c(=O)[nH]1)CCC2)NC1CCCCC1
CC50 [1]: > 100 µM (active)
CC50 [2]: > 100 µM (active)

CCC(C)NC(=O)CSc1nc2ccccc2c(=O)[nH]1 (stereo not given)
CC50 [3]: > 100 µM (active)
CC50 [4]: > 100 µM (active)

CC(C)c1cc(=O)[nH]c2[nH][nH]c(=O)c12
Ki [5]: > 100 µM (inactive)
Ki [6]: 100 µM (active)
Ki [7]: 31.6 µM (active)
Ki [8]: 31.6 µM (active)
Ki (Aurora kinase A): 15.8 µM (active)
Ki [9]: 63.1 µM (active)
Ki [10]: 20 µM (active)
Ki [11]: 63.1 µM (active)
Ki (Activated CDC42 kinase 1): 25.1 µM (active)
Ki [12]: > 79.4 µM (inactive)
Ki [13]: 12.6 µM (active)
Ki [14]: 63.1 µM (active)
Ki [15]: > 100 µM (inactive)
Ki [16]: 20 µM (active)
Ki [17]: 15.8 µM (active)
Ki [18]: 15.8 µM (active)
Ki (Focal adhesion kinase 1): 79.4 µM (active)
Ki [19]: 63.1 µM (active)
Ki (Aurora kinase B): 63.1 µM (active)
Ki [20]: 63.1 µM (active)
Ki [21]: 31.6 µM (active)
Ki [22]: 79.4 µM (active)
Ki [23]: > 50.1 µM (inactive)
Ki [24]: 5.01 µM (active)
Ki [25]: 100 µM (active)
Ki [26]: 10 µM (active)
Ki [27]: 15.8 µM (active)
Ki [28]: 63.1 µM (active)
Ki [29]: 63.1 µM (active)
Ki [30]: 15.8 µM (active)

COc1ccccc1[N+]1=N[C-](c2ccc([N+](=O)[O-])cc2)CC1c1ccccc1 (stereo not given)
IC50 (Beta-lactamase [31]): > 59.6 µM (inactive)
IC50 (Beta-lactamase [32]): > 59.6 µM (inactive)
EC50 [33]: < 0.5 µM (active)
EC50 [34]: 1 µM (active)
EC50 [35]: 0.4 µM (active)
EC50 [36]: 1.7 µM (active)
EC50 [37]: 1.8 µM (active)
EC50 [38]: 1.4 µM (active)
EC50 [39]: 0.2 µM (active)

CCN(CC)C1=CC2=CC(=C(C#N)C#N)CCC2CC1 (stereo not given)
IC50 [40]: 3 µM (active)
IC50 (Beta-lactamase [31]): 3.32 µM (active)
IC50 (Beta-lactamase [32]): 1.34 µM (active)
EC50 (Insulin-degrading enzyme [41]): > 54.7 µM (inactive)
EC50 (Insulin-degrading enzyme [42]): > 54.7 µM (inactive)
IC50 (HEK293 [43]): > 89.2 µM (inactive)
EC50 (HEK293 [44]): > 54.7 µM (inactive)

c1ccc(C2CCc3[nH]ncc32)cc1 (stereo not given)
Ki [15]: 50.1 µM (active)
Ki [18]: 39.8 µM (active)
Ki [19]: 79.4 µM (active)
Ki [45]: 20 µM (active)
Ki [21]: 39.8 µM (active)
Ki [46]: 31.6 µM (active)
Ki [23]: 39.8 µM (active)
Ki [24]: 12.6 µM (active)

CCn1c(SCC(=O)NCc2ccco2)nnc1-c1ccccc1O
IC50 [47]: > 99 µM (inactive)
IC50 [48]: > 99 µM (inactive)

CN(C)c1ccc(-c2c(-c3ccc4[nH]nc(N)c4c3)nnn2Cc2ccccc2)cc1
Ki [49]: > 3.16 µM (inactive)
Ki [50]: > 10 µM (inactive)
Ki [51]: 0.0251 µM (active)
Ki [23]: 0.631 µM (active)
Ki [25]: 0.0794 µM (active)
